Assay results: ChEMBL document CHEMBL1909046, “DrugMatrix in vitro pharmacology data”

What was measured:
[1] = target: T1, Alpha-1D adrenergic receptor (Homo sapiens, UniProt P25100); format: cell membranes, HEK293, Membrane; conditions: hek293; also: in other assays of this panel Not Active means under 50% inhibition at 10 µM
T1 sequence (P25100 whole entry): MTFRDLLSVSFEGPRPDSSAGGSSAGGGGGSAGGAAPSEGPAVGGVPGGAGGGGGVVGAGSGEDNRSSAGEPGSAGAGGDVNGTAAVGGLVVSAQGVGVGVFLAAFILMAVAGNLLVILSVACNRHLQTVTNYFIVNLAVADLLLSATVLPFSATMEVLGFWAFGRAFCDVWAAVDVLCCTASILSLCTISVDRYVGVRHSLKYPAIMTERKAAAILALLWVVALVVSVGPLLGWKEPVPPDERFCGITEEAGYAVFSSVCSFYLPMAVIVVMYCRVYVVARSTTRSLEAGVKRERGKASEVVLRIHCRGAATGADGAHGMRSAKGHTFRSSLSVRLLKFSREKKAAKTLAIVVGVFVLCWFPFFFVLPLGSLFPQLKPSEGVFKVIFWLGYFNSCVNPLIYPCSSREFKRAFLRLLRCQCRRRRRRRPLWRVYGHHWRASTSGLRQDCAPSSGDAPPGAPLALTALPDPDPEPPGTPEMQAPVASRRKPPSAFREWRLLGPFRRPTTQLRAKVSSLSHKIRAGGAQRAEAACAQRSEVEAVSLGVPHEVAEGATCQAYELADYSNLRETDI

[2] = target: 5-hydroxytryptamine receptor 6 (Homo sapiens, UniProt P50406); format: cell membranes, HeLa, Membrane; conditions: hela; also: in other assays of this panel Not Active means under 50% inhibition at 10 µM
[3] = DRUGMATRIX: Imidazoline I2, Central radioligand binding (ligand: [3H] Idazoxan); format: cell membranes, Rattus norvegicus, Wistar, Cerebral cortex, Membrane; conditions: Not Active = under 50% inhibition at 10 µM
[4] = target: T2, Muscarinic acetylcholine receptor M2 (Homo sapiens, UniProt P08172); format: cell membranes, CHO-K1, Membrane; conditions: cho-k1; also: in other assays of this panel Not Active means under 50% inhibition at 10 µM
T2 sequence (P08172 whole entry): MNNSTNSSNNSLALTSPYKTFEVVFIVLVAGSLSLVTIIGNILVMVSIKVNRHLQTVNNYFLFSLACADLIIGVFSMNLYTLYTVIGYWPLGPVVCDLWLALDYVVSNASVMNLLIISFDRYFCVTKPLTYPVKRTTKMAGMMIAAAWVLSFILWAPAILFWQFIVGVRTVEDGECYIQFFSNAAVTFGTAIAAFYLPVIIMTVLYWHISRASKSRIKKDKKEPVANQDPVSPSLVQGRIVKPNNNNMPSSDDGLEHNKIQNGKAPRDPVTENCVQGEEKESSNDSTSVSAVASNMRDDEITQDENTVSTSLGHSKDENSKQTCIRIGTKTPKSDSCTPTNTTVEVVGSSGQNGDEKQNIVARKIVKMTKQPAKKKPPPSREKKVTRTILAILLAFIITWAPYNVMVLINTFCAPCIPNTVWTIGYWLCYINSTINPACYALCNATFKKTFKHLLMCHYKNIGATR

Cytochrome P450 2C19 = Cytochrome P450 2C19 (Homo sapiens, UniProt P33261); conditions: bti-tn-5b1-4; also: in other assays of this panel Not Active means under 50% inhibition at 10 µM
Cytochrome P450 2C19, sequence (P33261 whole entry): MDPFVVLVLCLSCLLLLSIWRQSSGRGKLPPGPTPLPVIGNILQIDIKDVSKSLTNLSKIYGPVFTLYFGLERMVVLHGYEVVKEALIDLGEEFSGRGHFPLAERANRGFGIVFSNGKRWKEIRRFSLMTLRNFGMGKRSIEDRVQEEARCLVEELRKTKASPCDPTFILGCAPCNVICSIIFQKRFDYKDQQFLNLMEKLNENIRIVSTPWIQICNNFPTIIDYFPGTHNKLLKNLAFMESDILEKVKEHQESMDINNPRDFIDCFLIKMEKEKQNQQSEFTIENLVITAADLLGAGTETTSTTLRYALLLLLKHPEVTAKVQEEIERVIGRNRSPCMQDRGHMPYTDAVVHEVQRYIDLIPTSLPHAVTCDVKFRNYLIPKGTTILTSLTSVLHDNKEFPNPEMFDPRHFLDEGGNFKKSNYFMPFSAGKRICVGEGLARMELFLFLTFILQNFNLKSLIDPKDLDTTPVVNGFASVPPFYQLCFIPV

5-hydroxytryptamine receptor 6, sequence (P50406 whole entry): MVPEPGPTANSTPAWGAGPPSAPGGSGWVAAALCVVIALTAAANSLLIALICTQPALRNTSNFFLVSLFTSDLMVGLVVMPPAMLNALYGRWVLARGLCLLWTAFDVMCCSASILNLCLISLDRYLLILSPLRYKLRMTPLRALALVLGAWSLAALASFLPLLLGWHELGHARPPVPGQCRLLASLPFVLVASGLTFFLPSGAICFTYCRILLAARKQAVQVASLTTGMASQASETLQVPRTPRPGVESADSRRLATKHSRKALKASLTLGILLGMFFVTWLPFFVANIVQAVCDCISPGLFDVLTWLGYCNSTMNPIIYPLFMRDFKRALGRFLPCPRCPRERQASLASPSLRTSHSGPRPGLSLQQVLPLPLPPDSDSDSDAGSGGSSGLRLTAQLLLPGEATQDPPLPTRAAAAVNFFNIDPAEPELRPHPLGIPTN

O=C(O)c1cccnc1Nc1cccc(C(F)(F)F)c1 [NIFLUMIC ACID]
Not Active: IC50 [1] | IC50 [2] | IC50 [3] | Ki [3] | IC50 [4] | IC50 (Cytochrome P450 2C19) | Ki (Cytochrome P450 2C19)

COC(=O)Nc1nc2ccc(C(=O)c3cccs3)cc2[nH]1 [NOCODAZOLE]
Not Active: IC50 [1] | IC50 [2] | IC50 [3] | Ki [3] | IC50 [4] | IC50 (Cytochrome P450 2C19) | Ki (Cytochrome P450 2C19)

C#CC1(O)CC[C@H]2[C@@H]3CCC4=CC(=O)CC[C@@H]4[C@H]3CC[C@@]21CC (stereo partly specified) [NORGESTREL]
Not Active: IC50 [1] | IC50 [2] | IC50 [3] | Ki [3] | IC50 [4] | IC50 (Cytochrome P450 2C19) | Ki (Cytochrome P450 2C19)

COC(=O)Nc1nc2ccc([S+]([O-])c3ccccc3)cc2[nH]1 (stereo unspecified) [OXFENDAZOLE]
Not Active: IC50 [1] | IC50 [2] | IC50 [3] | Ki [3] | IC50 [4] | IC50 (Cytochrome P450 2C19) | Ki (Cytochrome P450 2C19)

C[n+]1ccc(-c2cc[n+](C)cc2)cc1.[Cl-].[Cl-] [PARAQUAT DICHLORIDE]
Not Active: IC50 [1] | IC50 [2] | IC50 [3] | Ki [3] | IC50 [4] | IC50 (Cytochrome P450 2C19) | Ki (Cytochrome P450 2C19)

CCn1cc(C(=O)O)c(=O)c2cnc(N3CCCC3)nc21 [PIROMIDIC ACID]
Not Active: IC50 [1] | IC50 [2] | IC50 [3] | Ki [3] | IC50 [4] | IC50 (Cytochrome P450 2C19) | Ki (Cytochrome P450 2C19)

C[n+]1ccccc1/C=N/O.[Cl-] [PRALIDOXIME CHLORIDE]
Not Active: IC50 [1] | IC50 [2] | IC50 [3] | Ki [3] | IC50 [4] | IC50 (Cytochrome P450 2C19) | Ki (Cytochrome P450 2C19)

C[C@]12C=CC(=O)C=C1CC[C@@H]1[C@@H]2[C@@H](O)C[C@@]2(C)[C@H]1CC[C@]2(O)C(=O)CO [PREDNISOLONE]
Not Active: IC50 [1] | IC50 [2] | IC50 [3] | Ki [3] | IC50 [4] | IC50 (Cytochrome P450 2C19) | Ki (Cytochrome P450 2C19)

CC(=O)[C@H]1[C@H](C#N)C[C@H]2[C@@H]3CC=C4C[C@@H](O)CC[C@]4(C)[C@H]3CC[C@@]21C [PREGNENOLONE CARBONITRILE]
Not Active: IC50 [1] | IC50 [2] | IC50 [3] | Ki [3] | IC50 [4] | IC50 (Cytochrome P450 2C19) | Ki (Cytochrome P450 2C19)

CCCN(CCC)S(=O)(=O)c1ccc(C(=O)O)cc1 [PROBENECID]
Not Active: IC50 [1] | IC50 [2] | IC50 [3] | Ki [3] | IC50 [4] | IC50 (Cytochrome P450 2C19) | Ki (Cytochrome P450 2C19)

CCCOc1ccc(C(=O)OCCN(CC)CC)cc1N [PROPARACAINE]
Not Active: IC50 [1] | IC50 [2] | IC50 [3] | Ki [3] | IC50 [4] | IC50 (Cytochrome P450 2C19) | Ki (Cytochrome P450 2C19)

C[C@@H]1O[C@@H](O[C@@H]2C=C3CC[C@@H]4[C@H](CC[C@]5(C)[C@@H](c6ccc(=O)oc6)CC[C@]45O)[C@@]3(C)CC2)[C@H](O)[C@H](O)[C@H]1O [PROSCILLARIDIN]
Not Active: IC50 [1] | IC50 [2] | IC50 [3] | Ki [3] | IC50 [4] | IC50 (Cytochrome P450 2C19) | Ki (Cytochrome P450 2C19)

Oc1cccc(O)c1O [PYROGALLOL]
Not Active: IC50 [1] | IC50 [2] | IC50 [3] | Ki [3] | IC50 [4] | IC50 (Cytochrome P450 2C19) | Ki (Cytochrome P450 2C19)

AURANOFIN
Not Active: IC50 [1] | Ki [1] | IC50 [2] | Ki [2] | IC50 [3] | Ki [3] | IC50 [4] | Ki [4] | IC50 (Cytochrome P450 2C19) | Ki (Cytochrome P450 2C19)

GADOPENTETATE DIMEGLUMINE
Not Active: IC50 [1] | Ki [1] | IC50 [2] | Ki [2] | IC50 [3] | Ki [3] | IC50 [4] | Ki [4] | IC50 (Cytochrome P450 2C19) | Ki (Cytochrome P450 2C19)

GENTAMICIN
Not Active: IC50 [1] | Ki [1] | IC50 [2] | Ki [2] | IC50 [3] | Ki [3] | IC50 [4] | Ki [4] | IC50 (Cytochrome P450 2C19) | Ki (Cytochrome P450 2C19)

GRAMICIDIN
Not Active: IC50 [1] | Ki [1] | IC50 [2] | Ki [2] | IC50 [3] | Ki [3] | IC50 [4] | Ki [4] | IC50 (Cytochrome P450 2C19) | Ki (Cytochrome P450 2C19)

NYSTATIN
Not Active: IC50 [1] | Ki [1] | IC50 [2] | Ki [2] | IC50 [3] | Ki [3] | IC50 [4] | Ki [4] | IC50 (Cytochrome P450 2C19) | Ki (Cytochrome P450 2C19)
